In test [1] the target is T1, FGFR1 (Homo sapiens, UniProt P11362, C488A/C584S).
T1 construct: made in house; host or cells: E. coli
Description: ESI-CIU-IMS-MS collision-induced unfolding of FGFR1 after incubation with inhibitor. Conditions: for IMS-MS Drift Time of unfolded conformer / Intensity vs base peak (5.5 ms) of the unfolded conformer at ca 7.6 ms: 11+ FGFR1 ions. As to the method: FGFR1 (2 μM) and inhibitors (8 μM) were incubated separately in ammonium acetate (100 mM) for 1 h at room temperature prior to analysis. A Synapt G2‐S travelling‐wave ion mobility spectrometry ‐ mass spectrometer equipped with a nano‐ESI source was used for all sample analyses (Waters Corp., Manchester, UK). Samples were analysed by nano‐ESI from in‐house fabricated gold–palladium‐coated borosilicate capillaries assembled using a P‐97 micropipette puller (Sutter Instrument Co., Novato, CA, USA) and a sputter coater (Polaron SC7620; Quorum Technologies Ltd, Kent, UK). The following instrument parameters were set: capillary voltage 1.8 kV, cone voltage 30 V, source temperature 100°C, backing pressure 9.3 mbar, travelling‐wave height 40 V, travelling‐wave speed 500 m/s, IMS He gas flow rate 150 mL/min, IMS N2 gas flow rate 50 mL/min. For the collision‐induced unfolding (CIU) experiments, the trap voltage was increased to 21 V or 24 V and the transfer voltage was maintained at 4 V. Data were processed by use of the MassLynx (version 4.1) and Driftscope software supplied with the mass spectrometer. The m/z scale was calibrated using a separate introduction of aqueous CsI at 1 mg/mL.
To see if type I and type II inhibitors affect the conformational profile of FGFR1, the protein was incubated with each inhibitor separately prior to nano‐ESI‐CIU‐IMS‐MS analysis. All charge‐state ions arising from the FGFR1–ligand complexes (selected individually by the initial quadrupole analyser) were subjected to CIU‐induced unfolding in the trap prior to IMS separation.
During these analyses, the trap energy was increased and protein unfolding was monitored by examining the drift times of the protein ions during their transit through the IMS cell.

In test [2] the test system is FGFR1. To be noted: read-out: in vitro IC50 against FGFR1; cited from earlier work.
In test [3] the target is T2, FGFR1 kinase domain (Homo sapiens, UniProt P11362, C488A/C584S).
T2 construct: Human FGFR1 consisting of residues 457–765 with C488A and C584S mutations; made in house; host or cells: E. coli
T2 sequence (P11362 457-765 C488A/C584S): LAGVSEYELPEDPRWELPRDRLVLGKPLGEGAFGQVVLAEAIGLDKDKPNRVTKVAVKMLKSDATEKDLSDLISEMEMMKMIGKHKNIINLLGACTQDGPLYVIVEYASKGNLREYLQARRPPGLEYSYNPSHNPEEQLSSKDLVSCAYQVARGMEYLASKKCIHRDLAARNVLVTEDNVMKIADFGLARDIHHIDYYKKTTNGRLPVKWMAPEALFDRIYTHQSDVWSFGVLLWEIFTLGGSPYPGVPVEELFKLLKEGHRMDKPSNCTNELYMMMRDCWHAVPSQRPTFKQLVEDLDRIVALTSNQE
Description: X-ray crystallography of FGFR1–ligand complexes (DFG loop status). Conditions: co-crystal structure. In kind it is binding.
Description: Data were integrated and scaled using XDS[23] and SCALA[24] as implemented within the autoPROC software package.[25] Data reduction and structure solution by molecular replacement were carried out using programs from the CCP4 software suite.[26] […] The protein–inhibitor complex model was refined using Buster,[28] interspersed with rounds of manual model building in Coot.[29]

Test [4] deals with T1, FGFR1. Description: Microscale thermophoresis (MST), label-free. The test is classed as binding. To be noted: type I TKI; MST per b30 and Figure S5 (Figure 2 legend says ITC), 25°C. As to the method:
Thermophoresis was used to measure the binding interactions between FGFR1 and compounds. The MST measurements were performed using a Monolith NT.LabelFree instrument (NanoTemper Technologies GmbH, Munich, Germany). In this instrument, an infrared laser beam and light (fluorescence excitation and emission) was coupled with a dichroic mirror and focused on the sample. When the IR‐laser was on, it heated a small area of the sample and created a temperature gradient. The total fluorescence of the focused area was measured when the IR‐laser was off (Fcold) and on (Fhot). The capillaries were filled with the sample (less than 5 μL was required for each capillary). The following MST settings were used: LED power 70%, MST laser power 40%, fluorescence before (5 s), MST on (30 s), fluorescence after (3 s). […] After the capillary scan thermophoresis FGFR1 was measured for 30 s in the presence of the varied concentrations of compound. Fnorm = Fhot/Fcold was analysed and plotted by NT Analysis software (NanoTemper Technologies GmbH). Fraction bound = (Fnorm – Fnorm [unbound])/(Fnorm (bound) – Fnorm (unbound)) was calculated and the binding data were fitted to a Hill function (n = 1) using the instrument analysis software. To eliminate artifacts caused by labelling or modifying proteins, the fluorescence of tryptophan residues was used to monitor the local protein concentration. […]
A general note: MST reads how a fluorescent partner responds to local heating, with and without ligand.

Test [5] deals with FGFR1. Set-up: method as in PMID 22141913. To be noted: cited from earlier work.
Test [6] deals with T3, Human FGFR1 consisting of residues 457–765 with C488A and C584S mutations (Homo sapiens, UniProt P11362, C488A/C584S).
T3 construct: made in house; host or cells: E. coli
T3 sequence (P11362 with tags, fused parts or gaps C488A/C584S): as the sequence (P11362 457-765 C488A/C584S) above, with L1G counted along it
Description: Isothermal titration calorimetry (ITC) of inhibitor binding to FGFR1. Conditions: 25°C, type I TKIs. A general note: ITC needs no label: the signal is the heat of the interaction.
Description: ITC was carried out using a Microcal ITC200 instrument (GE Healthcare Biosciences, Amersham, UK). FGFR1 was dialysed against the experimental buffer (20 mM Tris/HCl, 100 mM NaCl and 5 mM DTT pH 7.8) prior to titration with inhibitor. Inhibitors were dissolved in DMSO, and experimental buffer DMSO concentration was matched. Titrations were performed at 25°C with 2 μL injections of inhibitor (200 μM) every 180 s into the cell containing FGFR1 (20 μM) with stirring at 1000 rpm. Results were analysed in Origin (OriginLab, Northampton, MA, USA) and fitted using a one‐site binding model.

Structures are written as SMILES.

T1 sequence (P11362 with tags, fused parts or gaps C488A/C584S): as the sequence (P11362 457-765 C488A/C584S) above, with L1G counted along it

With `Cc1cc(Nc2nc(NCCc3cccnc3)ncc2Br)n[nH]1` [Compound C], in test [1] (21 V Trap), the “IMS-MS Drift Time of unfolded conformer” value worked out at 7.5 ms and the “Intensity vs base peak (5.5 ms) of the unfolded conformer at ca 7.6 ms” value was 25.0%. Further, in test [1] (24 V Trap), the “IMS-MS Drift Time of unfolded conformer” value worked out at 7.5 ms and the “Intensity vs base peak (5.5 ms) of the unfolded conformer at ca 7.6 ms” value was 40.7%.
`CNC(=O)c1ccccc1Nc1cc(Nc2cn(C)nc2C)ncc1C(F)(F)F` [Compound E]: in test [1] (21 V Trap), the “IMS-MS Drift Time of unfolded conformer” value worked out at 7.5 ms and the “Intensity vs base peak (5.5 ms) of the unfolded conformer at ca 7.6 ms” value was found to be 24.2%. In test [1] (24 V Trap), the “IMS-MS Drift Time of unfolded conformer” value came to 7.5 ms and the “Intensity vs base peak (5.5 ms) of the unfolded conformer at ca 7.6 ms” value came to 45.8%.
Consider `CNC(=O)c1cc(Oc2ccc(NC(=O)Nc3ccc(Cl)c(C(F)(F)F)c3)cc2)ccn1` [Sorafenib], for which the “IMS-MS Drift Time of unfolded conformer” value in test [1] (21 V Trap) is on record as 7.5 ms. Further, in test [1] (24 V Trap), the “IMS-MS Drift Time of unfolded conformer” value was 7.5 ms and the “Intensity vs base peak (5.5 ms) of the unfolded conformer at ca 7.6 ms” value was 66.1%. For the same compound, the “Inhibitor class assigned from CIU profile” value in test [1] (ESI-IMS-MS CIU profile) is “type II”. Also, the IC50 (as a rule, the concentration at which inhibition is half-maximal) in test [2] is 580 nM.
Consider `Cc1ccc(F)c(NC(=O)Nc2ccc(-c3cccc4[nH]nc(N)c34)cc2)c1` [Linifanib], for which, in test [1] (21 V Trap), the “IMS-MS Drift Time of unfolded conformer” value is 7.5 ms and the “Intensity vs base peak (5.5 ms) of the unfolded conformer at ca 7.6 ms” value came out at 55.0%. In addition, in test [1] (24 V Trap), the “IMS-MS Drift Time of unfolded conformer” value is 7.7 ms and the “Intensity vs base peak (5.5 ms) of the unfolded conformer at ca 7.6 ms” value turned out to be 92.8%. In addition, the “FGFR1 kinase conformation bound or induced (DFG motif orientation)” value in test [3] is on record as “DFG out”.
Consider `CN1CCN(c2ccc(NC(=O)c3n[nH]c4ccccc34)cc2)CC1` [JK-P5], for which, in test [1] (21 V Trap), the “IMS-MS Drift Time of unfolded conformer” value turned out to be 7.5 ms and the “Intensity vs base peak (5.5 ms) of the unfolded conformer at ca 7.6 ms” value was determined as 22.1%. In test [1] (24 V Trap), the “IMS-MS Drift Time of unfolded conformer” value is recorded as 7.5 ms and the “Intensity vs base peak (5.5 ms) of the unfolded conformer at ca 7.6 ms” value turned out to be 32.2%. Further, in test [4], the Kd (usually the concentration at which binding is half-saturated) was 145 nM. The “cellular activity against FGFR1” value in test [5] was “cellular activity against FGFR1”. Also, the “FGFR1 kinase conformation bound or induced (DFG motif orientation)” value in test [3] is “DFG in”.
Regarding `CC(C)Oc1cc(Nc2ccnc(NCc3cc(C4CC4)no3)n2)n[nH]1` [Compound B], in test [1] (21 V Trap), the “IMS-MS Drift Time of unfolded conformer” value was 7.5 ms and the “Intensity vs base peak (5.5 ms) of the unfolded conformer at ca 7.6 ms” value was 29.2%. Also, in test [1] (24 V Trap), the “IMS-MS Drift Time of unfolded conformer” value was determined as 7.7 ms and the “Intensity vs base peak (5.5 ms) of the unfolded conformer at ca 7.6 ms” value is 50.8%.
In the case of `CCCc1cc(Nc2nc(NCc3ccccn3)ncc2Br)n[nH]1` [Compound D], in test [1] (21 V Trap), the “IMS-MS Drift Time of unfolded conformer” value was found to be 7.5 ms and the “Intensity vs base peak (5.5 ms) of the unfolded conformer at ca 7.6 ms” value stood at 27.5%. For the same compound, in test [1] (24 V Trap), the “IMS-MS Drift Time of unfolded conformer” value stood at 7.7 ms and the “Intensity vs base peak (5.5 ms) of the unfolded conformer at ca 7.6 ms” value was 43.2%. For the same compound, the “Kd for FGFR1” value in test [6] is 36 nM.
For `COc1ccc(C(=O)Nc2cc(-c3ccccc3)[nH]n2)cc1OC` [JK-P3], in test [1] (21 V Trap), the “IMS-MS Drift Time of unfolded conformer” value was determined as 7.5 ms and the “Intensity vs base peak (5.5 ms) of the unfolded conformer at ca 7.6 ms” value was found to be 30.8%. For the same compound, in test [1] (24 V Trap), the “IMS-MS Drift Time of unfolded conformer” value is 7.5 ms and the “Intensity vs base peak (5.5 ms) of the unfolded conformer at ca 7.6 ms” value stood at 45.8%. This compound showed a Kd in test [4] of 25000 nM. Besides, the “cellular activity against FGFR1” value in test [5] is recorded as “cellular activity against FGFR1”. For the same compound, in test [3], the “FGFR1 kinase conformation bound or induced (DFG motif orientation)” value is “DFG in”.
As for `Cc1ccc(C(=O)Nc2ccc(CN3CCN(C)CC3)c(C(F)(F)F)c2)cc1C#Cc1cnc2cccnn12` [Ponatinib], the “IMS-MS Drift Time of unfolded conformer” value was found to be 7.9 ms in test [1] (21 V Trap) and 7.7 ms in test [1] (24 V Trap). Also, the figures for the “Intensity vs base peak (5.5 ms) of the unfolded conformer at ca 7.6 ms” value in test [1] (21 V Trap) and in test [1] (24 V Trap) were 46.7% and 71.2%, respectively.

The values above are taken from publication PMC12062780, “Validation of ion mobility spectrometry ‐ mass spectrometry as a screening tool to identify type II kinase inhibitors of FGFR1 kinase” (Rapid Communications in Mass Spectrometry, 2021).
